Tests used:
Type in all cases: cell-based
[1] = biological target: T1, human muscarinic M1 receptor (Homo sapiens, UniProt P11229); assay: Alphascreen Surefire phospho-ERK1/2 functional assay, M1; details: CHO cells stably expressing human M1
T1 sequence (P11229 1-460): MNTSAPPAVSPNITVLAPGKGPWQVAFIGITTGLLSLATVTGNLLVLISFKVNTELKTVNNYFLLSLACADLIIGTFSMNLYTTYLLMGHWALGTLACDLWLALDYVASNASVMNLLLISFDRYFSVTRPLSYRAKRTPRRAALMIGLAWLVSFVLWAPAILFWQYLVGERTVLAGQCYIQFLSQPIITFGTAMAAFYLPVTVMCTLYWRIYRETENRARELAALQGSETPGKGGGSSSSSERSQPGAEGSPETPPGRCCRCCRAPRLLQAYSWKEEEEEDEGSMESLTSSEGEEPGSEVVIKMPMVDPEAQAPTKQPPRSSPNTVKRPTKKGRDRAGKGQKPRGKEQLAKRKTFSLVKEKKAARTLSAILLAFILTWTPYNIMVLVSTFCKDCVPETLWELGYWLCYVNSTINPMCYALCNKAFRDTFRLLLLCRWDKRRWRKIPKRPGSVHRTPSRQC
Summary of the method: (§1)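 CHO cells stably expressing human M1, M2, M3 or M4 receptor, serum-starved overnight, then stimulated with agonist for 5 min at 37 °C. Cells lysed for 15 min and phospho-ERK1/2 detected in the lysate by AlphaScreen SureFire.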

[2] = biological target: T2, human muscarinic M2 receptor (Homo sapiens, UniProt P08172); assay: Alphascreen Surefire phospho-ERK1/2 functional assay, M2; details: CHO cells stably expressing human M2
T2 sequence (P08172 1-466): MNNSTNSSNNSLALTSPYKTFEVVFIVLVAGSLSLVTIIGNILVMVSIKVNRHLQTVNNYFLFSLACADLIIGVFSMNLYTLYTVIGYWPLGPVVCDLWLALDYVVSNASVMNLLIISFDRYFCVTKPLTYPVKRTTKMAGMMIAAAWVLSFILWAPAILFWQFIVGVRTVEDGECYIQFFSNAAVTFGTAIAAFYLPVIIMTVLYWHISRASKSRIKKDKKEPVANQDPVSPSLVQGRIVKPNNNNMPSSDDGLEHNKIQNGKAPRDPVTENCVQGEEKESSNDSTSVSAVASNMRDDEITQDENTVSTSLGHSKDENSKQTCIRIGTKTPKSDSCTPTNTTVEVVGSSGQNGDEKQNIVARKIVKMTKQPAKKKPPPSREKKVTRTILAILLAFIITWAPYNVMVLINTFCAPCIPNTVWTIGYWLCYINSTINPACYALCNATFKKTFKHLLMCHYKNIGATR
Procedure: (§2) ERK1/2 phosphorylation is a downstream consequence of both Gq/11 and Gi/o protein coupled receptor activation, making it highly suitable for the assessment of M1, M3 (Gq/11 coupled) and M2, M4 receptors (Gi/o coupled), rather than using different assay formats for different receptor subtypes. CHO cells stably expressing the human muscarinic M1, M2, M3 or M4 receptor were plated (25K/well) onto 96-well tissue culture plates in MEM-alpha+10% dialysed FBS. Once adhered, cells were serum-starved overnight. Agonist stimulation was performed by the addition of 5 μL agonist to the cells for 5 min (37° C.). Media was removed and 50 μL of lysis buffer added. After 15 min, a 4 μL sample was transferred to 384-well plate and 7 μL of detection mixture added. […]

[3] = biological target: T3, human muscarinic M3 receptor (Homo sapiens, UniProt P20309); assay: Alphascreen Surefire phospho-ERK1/2 functional assay, M3; details: CHO cells stably expressing human M3
T3 construct: expressed in transfected cells
Procedure: as §2

[4] = biological target: T4, human muscarinic M4 receptor (Homo sapiens, UniProt P08173); assay: Alphascreen Surefire phospho-ERK1/2 functional assay, M4; details: CHO cells stably expressing human M4
T4 construct: expressed in transfected cells
T4 sequence (P08173 1-479): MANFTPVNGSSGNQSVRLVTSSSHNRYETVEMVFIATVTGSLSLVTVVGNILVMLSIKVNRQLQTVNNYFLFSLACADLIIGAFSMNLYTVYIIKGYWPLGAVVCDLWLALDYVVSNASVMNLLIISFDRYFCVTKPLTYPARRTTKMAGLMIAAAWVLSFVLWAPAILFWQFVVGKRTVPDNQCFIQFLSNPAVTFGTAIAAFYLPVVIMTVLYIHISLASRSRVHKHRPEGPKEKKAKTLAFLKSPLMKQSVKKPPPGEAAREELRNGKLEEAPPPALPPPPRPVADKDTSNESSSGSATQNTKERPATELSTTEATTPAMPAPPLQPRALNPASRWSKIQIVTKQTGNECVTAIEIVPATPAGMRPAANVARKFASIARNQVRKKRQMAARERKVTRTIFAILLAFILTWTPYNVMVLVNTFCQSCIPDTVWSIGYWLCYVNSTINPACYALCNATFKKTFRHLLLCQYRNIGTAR
Summary of the method: as §1

T3 sequence (P20309 whole entry): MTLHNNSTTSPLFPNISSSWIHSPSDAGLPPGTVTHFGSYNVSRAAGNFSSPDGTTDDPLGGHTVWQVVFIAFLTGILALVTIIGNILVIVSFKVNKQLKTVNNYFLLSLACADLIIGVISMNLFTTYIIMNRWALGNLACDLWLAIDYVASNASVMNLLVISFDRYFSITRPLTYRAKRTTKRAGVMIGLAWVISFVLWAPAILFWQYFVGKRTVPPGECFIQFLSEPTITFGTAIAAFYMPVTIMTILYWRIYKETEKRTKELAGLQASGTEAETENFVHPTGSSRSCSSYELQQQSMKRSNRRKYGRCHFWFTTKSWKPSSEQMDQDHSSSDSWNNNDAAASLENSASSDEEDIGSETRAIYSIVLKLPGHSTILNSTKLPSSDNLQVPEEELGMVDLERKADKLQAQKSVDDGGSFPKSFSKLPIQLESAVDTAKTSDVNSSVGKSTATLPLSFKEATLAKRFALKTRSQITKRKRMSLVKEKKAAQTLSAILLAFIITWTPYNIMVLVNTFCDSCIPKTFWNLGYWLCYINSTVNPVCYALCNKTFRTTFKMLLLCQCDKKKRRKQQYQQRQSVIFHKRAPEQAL

% Emax cf. ACh (M1) ([1]; Emax relative to ACh): (91) %
pEC50 M1 ([1]; agonist 5 min, 37° C.): 8.55
% Emax cf. ACh (M2) ([2]; Emax relative to ACh): (84) %
pEC50 M2 ([2]; agonist 5 min, 37° C.): 6.15
% Emax cf. ACh (M3) ([3]; Emax relative to ACh): (57) %
pEC50 M3 ([3]; agonist 5 min, 37° C.): 5.29
% Emax cf. ACh (M4) ([4]; Emax relative to ACh): (119) %
pEC50 M4 ([4]; agonist 5 min, 37° C.): 6.82
Structure (SMILES): CCN(CC)C(=O)[C@H]1[C@@H]2CN(C3CC4CCC(C3)N4c3nc(C)no3)C[C@@H]21 (single isomer, unassigned; isomer 2) [12-25 Isomer 2]

Source: patent publication US10858352B2, “Pharmaceutical compounds” (Heptares Therapeutics Limited, priority 2018, dated 2020)
